# Test results: publication PMC4770715, “LIM kinase inhibitors disrupt mitotic microtubule organization and impair tumor cell proliferation” (Oncotarget, 2015)
# Key:
# Assay in all cases: biochemical
# Design in all cases: KINOMEscan active-site competition binding, percent of control (100 = no competition)
# Settings in all cases: competition binding, percent control
# CDK3 = CDK3 (Homo sapiens, UniProt Q00526)
# From the text: (§1) Given the potential for the use of LIMK inhibitors as cancer chemotherapeutics, a high-throughput drug discovery and medicinal chemistry program was undertaken. Details of the screening methodology and description of initial hit matter were described in [38]. […] Details of their chemical synthesis are described in Charles et al.. […] These and additional physiochemical parameters are in Supplemental Table 5. […] Kinases inhibited >25% to 50% have yellow circles, 51% to 75% have orange circles, and >76% have red circles. In each case, the size of the circle is proportional to percentage inhibition. LIMK1 and LIMK2 positions are indicated in blue. Illustration reproduced courtesy of Cell Signaling Technology, Inc. (www.cellsignal.com). B. CRT0105950 structure and kinome selectivity mapping as described above. C.
# CDK8 = CDK8 (Homo sapiens, UniProt P49336)
# From the text: as §1
# CDKL3 = CDKL3 (Homo sapiens, UniProt Q8IVW4)
# From the text: as §1
# CIT = CIT (Homo sapiens, UniProt O14578)
# From the text: as §1
# CSNK2A2 = CSNK2A2 (Homo sapiens, UniProt P19784)
# From the text: as §1
# DCAMKL1 = target: T1, DCAMKL1 (Homo sapiens, UniProt O15075)
# T1 construct: gene DCLK1
# From the text: as §1
# EGFR(L858R,T790M) = EGFR(L858R,T790M) (Homo sapiens, UniProt P00533, L858R/T790M)
# From the text: as §1
# EGFR(S752-I759del) = EGFR(S752-I759del) (Homo sapiens, UniProt P00533, DEL752-759)
# From the text: as §1
# EPHB1 = EPHB1 (Homo sapiens, UniProt P54762)
# From the text: as §1
# ERK8 = target: T2, ERK8 (Homo sapiens, UniProt Q8TD08)
# T2 construct: gene MAPK15
# From the text: as §1
# FLT3(N841I) = FLT3(N841I) (Homo sapiens, UniProt P36888, N841I)
# From the text: as §1
# LIMK2 = LIMK2 (Homo sapiens, UniProt P53671)
# From the text: as §1
# LZK = target: T3, LZK (Homo sapiens, UniProt O43283)
# T3 construct: gene MAP3K13
# From the text: as §1
# MAP3K15 = MAP3K15 (Homo sapiens, UniProt Q6ZN16)
# From the text: as §1
# MERTK = MERTK (Homo sapiens, UniProt Q12866)
# From the text: as §1
# MLK1 = target: T4, MLK1 (Homo sapiens, UniProt P80192)
# T4 construct: gene MAP3K9
# From the text: as §1
# PCTK2 = target: T5, PCTK2 (Homo sapiens, UniProt Q00537)
# T5 construct: gene CDK17
# From the text: as §1
# PIK3CD = PIK3CD (Homo sapiens, UniProt O00329)
# From the text: as §1
# PRKG1 = PRKG1 (Homo sapiens, UniProt Q13976)
# From the text: as §1
# RET(V804L) = RET(V804L) (Homo sapiens, UniProt P07949, V804L)
# From the text: as §1
# S6K1 = target: T6, S6K1 (Homo sapiens, UniProt P23443)
# T6 construct: gene RPS6KB1
# From the text: as §1
# ULK1 = ULK1 (Homo sapiens, UniProt O75385)
# From the text: as §1
# ULK3 = ULK3 (Homo sapiens, UniProt Q6PHR2)
# From the text: as §1
# Sequence of PRKG1 (Q13976 whole entry): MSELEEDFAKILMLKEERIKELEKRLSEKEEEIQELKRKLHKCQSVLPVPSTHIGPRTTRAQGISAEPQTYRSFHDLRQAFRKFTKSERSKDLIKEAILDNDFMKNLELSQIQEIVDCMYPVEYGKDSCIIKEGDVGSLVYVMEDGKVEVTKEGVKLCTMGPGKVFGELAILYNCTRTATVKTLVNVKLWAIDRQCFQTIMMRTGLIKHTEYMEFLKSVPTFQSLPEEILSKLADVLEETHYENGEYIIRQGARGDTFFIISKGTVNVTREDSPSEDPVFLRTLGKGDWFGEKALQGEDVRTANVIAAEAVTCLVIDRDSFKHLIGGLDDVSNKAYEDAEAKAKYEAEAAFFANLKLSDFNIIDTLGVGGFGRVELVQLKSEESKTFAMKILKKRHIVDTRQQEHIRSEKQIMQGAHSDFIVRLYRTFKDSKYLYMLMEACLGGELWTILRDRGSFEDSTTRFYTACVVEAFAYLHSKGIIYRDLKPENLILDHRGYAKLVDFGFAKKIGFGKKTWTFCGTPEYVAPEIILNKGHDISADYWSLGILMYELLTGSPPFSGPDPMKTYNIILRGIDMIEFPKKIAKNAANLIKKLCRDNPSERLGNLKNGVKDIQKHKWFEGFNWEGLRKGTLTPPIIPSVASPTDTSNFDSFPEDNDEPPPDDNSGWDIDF
# Sequence of CIT (O14578 whole entry): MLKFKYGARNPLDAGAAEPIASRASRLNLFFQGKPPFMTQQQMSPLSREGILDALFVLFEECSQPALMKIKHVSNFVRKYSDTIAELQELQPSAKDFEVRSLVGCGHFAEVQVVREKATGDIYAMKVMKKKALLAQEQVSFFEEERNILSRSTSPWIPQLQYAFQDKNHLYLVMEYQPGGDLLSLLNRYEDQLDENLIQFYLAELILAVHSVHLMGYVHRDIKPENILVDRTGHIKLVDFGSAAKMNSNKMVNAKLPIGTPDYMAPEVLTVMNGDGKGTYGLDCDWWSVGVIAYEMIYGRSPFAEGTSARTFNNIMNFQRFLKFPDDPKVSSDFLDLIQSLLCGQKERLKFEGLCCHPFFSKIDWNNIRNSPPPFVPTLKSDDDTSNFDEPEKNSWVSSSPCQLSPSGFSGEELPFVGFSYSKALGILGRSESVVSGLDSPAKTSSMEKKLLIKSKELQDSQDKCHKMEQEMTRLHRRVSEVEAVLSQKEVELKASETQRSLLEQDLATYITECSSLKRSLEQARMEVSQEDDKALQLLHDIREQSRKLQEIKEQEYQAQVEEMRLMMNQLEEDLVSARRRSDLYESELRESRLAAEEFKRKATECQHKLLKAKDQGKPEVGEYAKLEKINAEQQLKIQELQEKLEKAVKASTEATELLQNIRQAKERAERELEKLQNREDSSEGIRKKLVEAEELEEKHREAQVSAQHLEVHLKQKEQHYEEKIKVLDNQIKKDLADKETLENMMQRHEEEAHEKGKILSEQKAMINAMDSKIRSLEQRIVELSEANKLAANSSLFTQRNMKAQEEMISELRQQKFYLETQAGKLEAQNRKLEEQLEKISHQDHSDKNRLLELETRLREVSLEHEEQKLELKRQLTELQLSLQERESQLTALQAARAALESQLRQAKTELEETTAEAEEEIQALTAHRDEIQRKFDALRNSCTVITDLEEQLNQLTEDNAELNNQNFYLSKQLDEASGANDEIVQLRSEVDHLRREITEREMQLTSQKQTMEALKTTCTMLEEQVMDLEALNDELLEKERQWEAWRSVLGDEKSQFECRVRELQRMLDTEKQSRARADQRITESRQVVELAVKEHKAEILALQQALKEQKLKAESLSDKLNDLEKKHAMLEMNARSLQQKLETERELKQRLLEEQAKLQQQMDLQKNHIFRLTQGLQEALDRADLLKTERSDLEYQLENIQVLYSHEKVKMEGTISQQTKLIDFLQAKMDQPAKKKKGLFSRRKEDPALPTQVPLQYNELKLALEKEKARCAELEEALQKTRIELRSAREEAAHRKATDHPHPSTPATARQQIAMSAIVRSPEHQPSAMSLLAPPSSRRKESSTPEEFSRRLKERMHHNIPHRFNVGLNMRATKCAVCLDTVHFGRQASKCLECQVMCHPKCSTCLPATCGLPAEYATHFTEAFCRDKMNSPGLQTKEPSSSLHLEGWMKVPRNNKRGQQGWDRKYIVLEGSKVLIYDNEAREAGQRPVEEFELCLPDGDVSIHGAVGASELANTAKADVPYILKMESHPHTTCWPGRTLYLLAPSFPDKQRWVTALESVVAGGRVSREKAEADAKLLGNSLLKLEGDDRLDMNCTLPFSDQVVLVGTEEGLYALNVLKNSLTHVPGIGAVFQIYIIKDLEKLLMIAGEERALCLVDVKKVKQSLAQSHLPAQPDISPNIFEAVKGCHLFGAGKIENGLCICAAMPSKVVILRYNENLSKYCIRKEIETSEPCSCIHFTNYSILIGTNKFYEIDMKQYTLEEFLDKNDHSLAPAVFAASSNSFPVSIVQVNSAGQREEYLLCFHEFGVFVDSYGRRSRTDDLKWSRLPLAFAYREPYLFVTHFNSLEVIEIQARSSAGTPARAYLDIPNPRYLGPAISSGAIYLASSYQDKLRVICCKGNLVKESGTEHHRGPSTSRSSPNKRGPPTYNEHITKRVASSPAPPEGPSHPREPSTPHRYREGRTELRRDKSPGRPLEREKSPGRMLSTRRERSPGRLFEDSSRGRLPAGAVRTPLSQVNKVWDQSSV
# T2 sequence (Q8TD08 whole entry): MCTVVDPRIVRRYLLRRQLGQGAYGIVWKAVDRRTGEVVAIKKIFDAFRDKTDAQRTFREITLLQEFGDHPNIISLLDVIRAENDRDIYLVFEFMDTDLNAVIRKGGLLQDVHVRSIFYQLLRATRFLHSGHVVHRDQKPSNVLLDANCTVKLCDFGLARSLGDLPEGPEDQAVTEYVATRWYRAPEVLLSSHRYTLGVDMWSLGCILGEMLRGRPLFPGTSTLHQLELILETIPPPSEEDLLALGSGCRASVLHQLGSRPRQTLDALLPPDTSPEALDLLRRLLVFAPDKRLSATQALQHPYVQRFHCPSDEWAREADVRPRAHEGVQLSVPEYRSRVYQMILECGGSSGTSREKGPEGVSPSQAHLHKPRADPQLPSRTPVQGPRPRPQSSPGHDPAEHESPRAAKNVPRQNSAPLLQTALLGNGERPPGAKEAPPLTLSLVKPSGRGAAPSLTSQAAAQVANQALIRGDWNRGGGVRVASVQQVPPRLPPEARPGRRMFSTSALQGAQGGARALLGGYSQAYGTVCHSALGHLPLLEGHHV
# Sequence of CDK8 (P49336 whole entry): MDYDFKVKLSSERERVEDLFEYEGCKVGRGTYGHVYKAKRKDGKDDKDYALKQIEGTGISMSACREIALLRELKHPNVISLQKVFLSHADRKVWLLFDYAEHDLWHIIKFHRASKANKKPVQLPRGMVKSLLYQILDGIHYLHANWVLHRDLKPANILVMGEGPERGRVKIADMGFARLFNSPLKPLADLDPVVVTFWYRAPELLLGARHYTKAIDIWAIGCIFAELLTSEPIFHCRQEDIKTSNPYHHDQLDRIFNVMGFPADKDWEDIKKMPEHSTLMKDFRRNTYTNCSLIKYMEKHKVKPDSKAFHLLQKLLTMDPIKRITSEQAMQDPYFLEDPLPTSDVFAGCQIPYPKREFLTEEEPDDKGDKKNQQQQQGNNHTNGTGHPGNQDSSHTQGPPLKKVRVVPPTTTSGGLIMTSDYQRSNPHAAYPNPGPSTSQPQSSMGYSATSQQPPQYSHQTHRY
# Sequence of CSNK2A2 (P19784 whole entry): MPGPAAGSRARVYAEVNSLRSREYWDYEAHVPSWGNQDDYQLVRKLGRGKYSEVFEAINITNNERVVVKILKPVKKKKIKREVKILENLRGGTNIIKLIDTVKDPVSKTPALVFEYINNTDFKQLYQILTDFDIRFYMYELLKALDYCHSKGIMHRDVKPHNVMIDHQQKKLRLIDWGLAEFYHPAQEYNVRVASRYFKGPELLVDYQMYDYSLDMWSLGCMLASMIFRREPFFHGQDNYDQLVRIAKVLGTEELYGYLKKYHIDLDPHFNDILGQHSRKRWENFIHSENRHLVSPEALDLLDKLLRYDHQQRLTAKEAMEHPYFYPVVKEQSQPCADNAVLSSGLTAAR
# T3 sequence (O43283 whole entry): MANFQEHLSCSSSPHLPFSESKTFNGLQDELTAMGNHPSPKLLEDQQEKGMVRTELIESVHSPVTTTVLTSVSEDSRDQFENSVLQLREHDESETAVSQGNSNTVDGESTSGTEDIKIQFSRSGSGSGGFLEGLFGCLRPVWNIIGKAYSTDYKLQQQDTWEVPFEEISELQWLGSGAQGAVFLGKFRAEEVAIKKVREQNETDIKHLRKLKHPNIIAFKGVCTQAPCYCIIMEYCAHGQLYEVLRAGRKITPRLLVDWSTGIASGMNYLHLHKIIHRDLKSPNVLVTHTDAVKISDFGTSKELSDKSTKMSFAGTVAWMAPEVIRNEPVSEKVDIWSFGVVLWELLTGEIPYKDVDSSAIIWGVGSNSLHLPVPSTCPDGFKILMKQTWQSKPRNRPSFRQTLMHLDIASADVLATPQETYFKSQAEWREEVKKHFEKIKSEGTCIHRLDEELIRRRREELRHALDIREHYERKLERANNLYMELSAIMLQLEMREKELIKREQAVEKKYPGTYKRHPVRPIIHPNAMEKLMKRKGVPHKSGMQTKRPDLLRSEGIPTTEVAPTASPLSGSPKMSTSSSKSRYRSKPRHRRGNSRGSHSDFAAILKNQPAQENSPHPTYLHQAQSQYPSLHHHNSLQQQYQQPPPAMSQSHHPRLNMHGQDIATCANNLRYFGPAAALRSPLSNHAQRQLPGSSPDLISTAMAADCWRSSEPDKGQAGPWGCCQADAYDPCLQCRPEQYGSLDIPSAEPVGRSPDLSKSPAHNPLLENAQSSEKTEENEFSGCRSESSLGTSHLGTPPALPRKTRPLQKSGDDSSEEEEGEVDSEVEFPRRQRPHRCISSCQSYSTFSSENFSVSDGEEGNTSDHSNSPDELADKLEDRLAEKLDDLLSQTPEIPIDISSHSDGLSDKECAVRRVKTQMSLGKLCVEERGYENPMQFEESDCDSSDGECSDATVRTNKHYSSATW
SMILES,remaining binding at 10 µM (CDK3) [%],remaining binding at 10 µM (CDK8) [%],remaining binding at 10 µM (CDKL3) [%],remaining binding at 10 µM (CIT) [%],remaining binding at 10 µM (CSNK2A2) [%],remaining binding at 10 µM (DCAMKL1) [%],"remaining binding at 10 µM (EGFR(L858R,T790M)) [%]",remaining binding at 10 µM (EGFR(S752-I759del)) [%],remaining binding at 10 µM (EPHB1) [%],remaining binding at 10 µM (ERK8) [%],remaining binding at 10 µM (FLT3(N841I)) [%],remaining binding at 10 µM (LIMK2) [%],remaining binding at 10 µM (LZK) [%],remaining binding at 10 µM (MAP3K15) [%],remaining binding at 10 µM (MERTK) [%],remaining binding at 10 µM (MLK1) [%],remaining binding at 10 µM (PCTK2) [%],remaining binding at 10 µM (PIK3CD) [%],remaining binding at 10 µM (PRKG1) [%],remaining binding at 10 µM (RET(V804L)) [%],other results
"COc1ccc(-c2cnccc2-c2cnc(NC(=O)C(C)C)s2)c(C(F)(F)F)c1 [CRT0105446, N-{5-[3-(4-Methoxy-2-trifluoromethyl-phenyl)-pyridin-4-yl]-hiazol-2-yl}-isobutyramide]",24,39,26,37,91,46,91,84,88,1.4,22,1.1,100,93,69,86,17,100,100,99,remaining binding at 10 µM (S6K1): 78%; remaining binding at 10 µM (ULK1): 100%; remaining binding at 10 µM (ULK3): 100%
"Cc1ccc(-c2cnccc2-c2cnc(Nc3ccc(O)cc3)s2)c(Cl)c1 [CRT0105950, 4-{5-[3-(2-Chloro-4-methyl-phenyl)-pyridin-4-yl]-thiazol-2-ylamino}-phenol]",7.7,11,23,44,58,75,89,69,80,1.6,0,0,96,82,0.45,13,52,100,72,5.8,remaining binding at 10 µM (S6K1): 41%; remaining binding at 10 µM (ULK1): 38%; remaining binding at 10 µM (ULK3): 68%
